Molecules are shown by their SMILES. The source made the active and inactive calls. No cut-off for these calls is given here.

The first experiment addresses T1, Muscarinic acetylcholine receptor M1 (Homo sapiens) (UniProt P11229).
T1 sequence (whole entry): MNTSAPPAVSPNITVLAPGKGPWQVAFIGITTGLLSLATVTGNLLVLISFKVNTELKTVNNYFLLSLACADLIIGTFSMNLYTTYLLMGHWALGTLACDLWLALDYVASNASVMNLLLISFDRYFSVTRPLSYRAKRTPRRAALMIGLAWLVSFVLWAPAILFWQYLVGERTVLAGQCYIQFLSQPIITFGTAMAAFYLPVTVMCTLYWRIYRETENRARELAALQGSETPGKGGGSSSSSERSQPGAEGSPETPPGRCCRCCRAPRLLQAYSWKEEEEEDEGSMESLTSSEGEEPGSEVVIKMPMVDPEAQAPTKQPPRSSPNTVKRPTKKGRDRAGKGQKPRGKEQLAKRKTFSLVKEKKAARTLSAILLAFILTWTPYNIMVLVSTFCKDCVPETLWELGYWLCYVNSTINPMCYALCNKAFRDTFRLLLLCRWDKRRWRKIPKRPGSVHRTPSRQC
Kind of experiment: (§1) Antagonist activity at human muscarinic M1 receptor.
Conditions: not given
Also on record: concentration or dose not given beside the values. Type of experiment: functional.
For the molecule `CN1CCN(C(=O)C(Cc2ccccc2)c2ccccc2)CC1` (racemic), the Activity was found to be 2.4%.

Consider `O=C(C(Cc1ccccc1)c1ccccc1)N1CCN(CC(F)(F)F)CC1` (configuration not stated), for which the result was inactive.

As to `CN1CCN(C(=O)[C@](F)(Cc2ccccc2)c2ccccc2)CC1` (mixture of isomers), the Activity worked out at 2.1%.

Consider `CN1CCCN(C(=O)C(Cc2ccccc2)c2ccccc2)CC1` (configuration not stated), for which the Activity was 2%.

As to `C[N+]1(C)CCN(C(=O)C(Cc2ccccc2)c2ccccc2)CC1` (configuration not stated), the Activity worked out at 8.7%.

On to `O=C(C(Cc1ccccc1)c1ccccc1)N1CCN(c2ccncc2)CC1` (configuration not stated), for which the Activity came out at 28.5%.

`CN1CCN(C(=O)[C@@H](Oc2ccccc2)c2ccccc2)CC1` (racemic) had an Activity of 107%.

In turn, `CN1CCN(C(=O)C(Cc2ccccc2)c2ccccc2)C(c2ccccc2)C1` (configuration not stated) displayed an Activity of 17.2%.

On to `CN1CCN(C(=O)C(Cc2cccnc2)c2ccccc2)CC1` (configuration not stated), for which the Activity was found to be 1.1%.

On to `O=C(C(Cc1ccccc1)c1ccccc1)N1CC[C@H]2CCCN2CC1` (some centres not stated), for which the Activity was 6.43%.

`O=C(C(Cc1ccccc1)c1ccccc1)N1CCN2CCCCC2C1` (configuration not stated) had an Activity of 0.5%.

Molecule `CC1CN(C(=O)C(Cc2ccccc2)c2ccccc2)CCN1C` (configuration not stated) yielded an Activity of 1.4%.

Regarding `O=C(C(Cc1ccccc1)c1ccccc1)N1CCC(N2CCCC2)CC1` (configuration not stated), the Activity came out at 3.5%.

In the case of `CN1CCC(N2CCN(C(=O)C(Cc3ccccc3)c3ccccc3)CC2)CC1` (configuration not stated), the result was inactive.

`CCN1CCCN(C(=O)C(Cc2ccccc2)c2ccccc2)CC1` (configuration not stated) displayed an Activity of 2.2%.

`CN1CCN(C(=O)C(Cc2ccccc2)c2ccccc2)CC1c1ccccc1` (configuration not stated) returned an Activity of 62.8%.

For `O=C(C(Cc1ccccc1)c1ccccc1)N1CCCNCC1` (configuration not stated), the Activity was determined as 24.3%.

`CCN1CCN(C(=O)C(Cc2ccccc2)c2ccccc2)CC1(C)C` (configuration not stated) displayed an Activity of 1.5%.

A further experiment deals with T2, Muscarinic acetylcholine receptor M1 (Homo sapiens, UniProt P11229).
T2 sequence (P11229 whole entry): T1 sequence (whole entry)
The experiment is described as §1. Type of experiment: functional. To be noted: read-out: IC50.
Consider `CN1CCN(C(=O)C2(c3ccccc3)CC2c2ccccc2)CC1` (configuration not stated), for which the IC50 was 2500 nM.

With `CN1CCN(C(=O)C(Cc2ccccc2)c2ccccc2)CC1` (racemic), the IC50 stood at 44 nM.

As for `CN1CCN(C(=O)[C@](F)(Cc2ccccc2)c2ccccc2)CC1` (mixture of isomers), the IC50 came to 2400 nM.

Consider `CN1CCCN(C(=O)C(Cc2ccccc2)c2ccccc2)CC1` (configuration not stated), for which the IC50 was determined as 100 nM.

Take `C[N+]1(C)CCN(C(=O)C(Cc2ccccc2)c2ccccc2)CC1` (configuration not stated): the IC50 is over 10000 nM.

Turning to `O=C(C(Cc1ccccc1)c1ccccc1)N1CCN(c2ccncc2)CC1` (configuration not stated), the IC50 is over 10000 nM.

Regarding `CN1CCN(C(=O)[C@@H](Oc2ccccc2)c2ccccc2)CC1` (racemic), the IC50 is over 10000 nM.

Regarding `CN1CCN(C(=O)/C(=C\c2ccccc2)c2ccccc2)CC1`, the IC50 amounted to 180 nM.

In the case of `CN1CCN(C(=O)C(Cc2ccccc2)c2ccccc2)C(c2ccccc2)C1` (configuration not stated), the IC50 is over 10000 nM.

On to `CN1CCN(C(=O)C(Cc2cccnc2)c2ccccc2)CC1` (configuration not stated), for which the IC50 came out at 500 nM.

Take `O=C(C(Cc1ccccc1)c1ccccc1)N1CC[C@H]2CCCN2CC1` (some centres not stated): the IC50 stood at 370 nM.

In the case of `O=C(C(Cc1ccccc1)c1ccccc1)N1CCN2CCCCC2C1` (configuration not stated), the IC50 was 2000 nM.

As to `CC1CN(C(=O)C(Cc2ccccc2)c2ccccc2)CCN1C` (configuration not stated), the IC50 is 100 nM.

In the case of `O=C(C(Cc1ccccc1)c1ccccc1)N1CCC(N2CCCC2)CC1` (configuration not stated), the IC50 is 3800 nM.

`CCN1CCCN(C(=O)C(Cc2ccccc2)c2ccccc2)CC1` (configuration not stated): the IC50 amounted to 38 nM.

As to `CN1CCN(C(=O)C(Cc2ccccc2)c2ccccc2)CC1c1ccccc1` (configuration not stated), the IC50 was over 10000 nM.

Regarding `O=C(C(Cc1ccccc1)c1ccccc1)N1CCCNCC1` (configuration not stated), the IC50 was over 10000 nM.

For the molecule `CCN1CCN(C(=O)C(Cc2ccccc2)c2ccccc2)CC1(C)C` (configuration not stated), the IC50 was 90 nM.

Staying with this experiment, now noted: read-out: pIC50 (converted).
Consider `O=C(C(Cc1ccccc1)c1ccccc1)N1CC[C@H]2CCCN2CC1` (some centres not stated), for which the IC50 was 2140 nM.

The target in a further experiment is T1, Muscarinic acetylcholine receptor M1 (Homo sapiens). Nature of the experiment: Antagonist activity at human muscarinic M1 receptor at 30 uM.
Conditions: not given
Type of experiment: functional.
For `C[N+]1(C)CCN(C(=O)C(Cc2ccccc2)c2ccccc2)CC1` (configuration not stated), the result was inactive.

With `O=C(C(Cc1ccccc1)c1ccccc1)N1CCN(c2ccncc2)CC1` (configuration not stated), the result was inactive.

Turning to `CN1CCN(C(=O)C(Cc2ccccc2)c2ccccc2)C(c2ccccc2)C1` (configuration not stated), the result was inactive.

Regarding `CN1CCN(C(=O)C(Cc2ccccc2)c2ccccc2)CC1c1ccccc1` (configuration not stated), the outcome was inactive.

For `O=C(C(Cc1ccccc1)c1ccccc1)N1CCCNCC1` (configuration not stated), the outcome was inactive.

These data come from ChEMBL document CHEMBL2163227, “Synthesis and biological characterization of a series of novel diaryl amide M₁ antagonists” (Bioorg Med Chem Lett, 2012).
